Literature values, collected in patent US20070218033A1, “Composition and method of treating hepatitis C” (priority 1991, published 2007).
Where two headings read alike, the source gives them in different places. Where no end group is shown, it is not given here.

How the values were obtained:
[1] = system: chronic hepatitis C (NANB hepatitis)
[2] = system: post-transfusion NANB hepatitis
[3] = system: chronic HCV infection
[4] = system: chronic NANB hepatitis; conditions: for proportion of patients with normal ALT levels at week 48: after treatment
[5] = system: hepatitis B virus (HBV); conditions: treated for a year
[6] = system: Woodchuck Hepatitis Virus; conditions: woodchuck infected with Woodchuck Hepatitis Virus
[7] = system: response to influenze vaccine; conditions: subcutaneously twice weekly
[8] = system: natural killer-cell activity; conditions: THNα1 and interferon together; immunosuppressed mice
[9] = system: nonsmall cell lung cancer
[10] = system: HCV-related diseases; conditions: in vivo
[11] = 900 μgrams/m^2 subcutaneously after radiotherapy

For α-interferon, the “relapse within six months after the completion of treatment” value ([1]; 1 MU) is listed as 44%, the “responded to treatment (serum ALT)” value ([1]; 1 MU three times weekly for 24 weeks, nine of sixteen patients) is listed as 56% and the “relapse within six months after the completion of treatment” value ([1]; 3 MU) is listed as 51%. The “liver histology (regression of lobular and periportal inflammation)” value ([1]; 3 MU three times weekly for 24 weeks) was “histologic improvement”, the “serum ALT level became completely normal” value ([1]; 3 MU three times weekly for 24 weeks, 22 of the 26 patients who responded) was 85% and the side effects ([2]; 1 MU/day) was “virtually absent”. For the same molecule, the “patients who improved their serum alanine transaminase (ALT) levels within one month of starting therapy” value ([2]; 5 MU daily in seven patients, 1 MU daily in three patients, ten patients) was “eight of ten”, the side effects ([2]; 5 MU/day dose) was “common” and the “degree of portal inflammation and loss of parenchymal hepatocytic necrosis in post-treatment liver biopsies” value ([2]; three patients with post-treatment liver biopsies) was “marked improvement”. For the same molecule, the “mean serum ALT and histological features of the liver” value ([3]; 2 MU subcutaneously three times weekly for six months, 21 patients) was “improved significantly”, the “other patients with a decrease in mean ALT of more than 50%” value ([3]; 2 MU subcutaneously three times weekly for six months, number of patients) was “three” and the “complete response (decline in mean serum ALT to the normal range during therapy)” value ([3]; 2 MU subcutaneously three times weekly for six months, ten of 21 patients) was 48%. For the same molecule, the “patients still with normal ALT values six to twelve months after discontinuation of therapy” value ([3]; 2 MU three times weekly for six months, two patients) was 10%, the “proportion of patients with normal ALT levels at 24 weeks” value ([4]; 1 MU group) was 45% and the “proportion of patients with normal ALT levels at week 48” value ([4]; 1 MU group) was 20%. For the same molecule, the “mean serum ALT levels during the 24 week treatment period” value ([4]; 1 MU three times a week) was “decreased”, the “proportion of patients with normal ALT levels at 24 weeks” value ([4]; 3 MU group) was 39% and the “proportion of patients with normal ALT levels at week 48” value ([4]; 3 MU group) was 28%. For the same molecule, the “decrease of mean serum ALT levels during the 24 week treatment period” value ([4]; 3 MU three times a week) was “statistically significant”, the “relapse in disease activity among responders when interferon was stopped” value ([4]; fraction of the responders) was “approximately half” and the “severity of histological changes in repeat liver biopsy specimens” value ([4]; higher dose group (3 MU)) was “significant decrease”. The “severity of histological changes in repeat liver biopsy specimens” value ([4]; lower dose group (1 MU)) was “not in the lower dose group”.
For “THNα1: 28 amino acidic polypeptide, molecular weight 3100, initially isolated from TF-5, sequenced and chemically synthesized (SDAAVDTSSEITTKDLKEKKEVVEEAEN; not fully specified; ends and bridges not checked; UniProt P06454 2-29, looked up)”, the “patients with reduced levels of serum HBV DNA” value ([5]; pooled THNα1 (5) and TF-5 (2) patients) is given as 6 of the 7, the “patients initially positive for serum HBsAg who subsequently cleared this antigen” value ([5]; pooled THNα1 and TF-5 patients) is given as 5 of 6 and the “viral DNA replication” value [6] is given as “suppressed”. For the same molecule, the “clinical or biochemical toxicity” value ([7]; drug recipients) was “No clinical or biochemical toxicity”, the “levels of antibody to influenza versus controls” value ([7]; six weeks post-vaccine) was “higher levels” and the “effect on natural killer-cell activity” value [8] was “synergistic effect”. For the same molecule, the T-cell numbers [9, 11] was “no increase”, the radiation-suppressed immune function [9, 11] was “some restoration” and the “relapse-free survival and overall survival versus placebo group” value ([9]; 900 μgrams/m^2 subcutaneously twice weekly, or daily for two weeks then twice weekly, both treatment groups) was “greater”.
For Nc1nc2c(ncn2COCCO)c(=O)[nH]1 [acyclovir], the “effectiveness in HCV-related diseases” value [10] is listed as “ineffective”.
